What was measured:
[1] = molecular target: T1, HCV polymerase (NS5B) type 1b (Hepatitis C virus genotype 1b, UniProt P26663); experiment: Assay of enzyme (HCV polymerase) inhibitory activity, type 1b enzyme; assay type: biochemical, HCV BK strain (type 1b)
T1 construct: a region encoding NS5B (J Virol 1991 March, 65(3), 1105-13, 544 amino acids after deletion of 47 amino acids on the C-terminal); 6xHis (C); made in house; host or cells: Escherichia coli
Procedure, shortened: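 Polymerase activity was followed as radiolabelled UTP incorporation by E. coli-expressed, His-tagged NS5B of HCV type 1b lacking its last 47 residues. Conditions: 2 μM UTP, 50 μM other NTPs, Mg2+ buffer at pH 7.5, 25 °C for 60 min. Inhibition relative to compound-free reactions gave IC50.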

[2] = molecular target: T2, HCV polymerase (NS5B) type 1a (Hepatitis C virus genotype 1a, UniProt P26664); experiment: Assay of enzyme (HCV polymerase) inhibitory activity, type 1a enzyme; assay type: biochemical, HCV type 1a (cloned from the blood of patients)
T2 construct: made in house; host or cells: Escherichia coli (by the 'similar method' of the 1b enzyme)
Procedure, shortened: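 IC50 values derive from radioactivity of newly synthesized RNA with versus without test compound. The enzyme was C-terminally truncated type 1a NS5B, 1.5 μg/ml, run 60 min at 25° C with 3H-UTP-labelled nucleotides.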

[3] = HCV polymerase inhibitory activity (IC50), 1b, type 1b enzyme 0.5 μg/ml, 25° C., 60 min
[4] = HCV polymerase inhibitory activity (IC50), 1a, type 1a enzyme 1.5 μg/ml, 25° C., 60 min
[5] = HCV polymerase inhibitory activity IC50, 1b, type 1b enzyme
[6] = HCV polymerase inhibitory activity IC50, 1a, type 1a enzyme

SMILES	IC50 [1, 3] [nM]	IC50 [2, 4] [nM]	IC50 [1, 5] [nM]	IC50 [2, 6] [nM]
CCc1ccc(S(=O)(=O)N2CCN(c3cnc(C(=O)O)cn3)C[C@@H]2C(=O)NCc2ccc(C(F)(F)CC)cc2)cc1 [Example 564, (R)-3-[4-(1,1-difluoro-propyl)-benzylcarbamoyl]-4-(4-ethyl-benzenesulfonyl)-3,4,5,6-tetrahydro-2H-[1,2′]bipyrazinyl-5′-carboxylic acid]	< 100	< 100		
CCCc1ccc(CNC(=O)[C@H]2CN(c3nc(C)c(C(=O)O)s3)CCN2S(=O)(=O)c2ccc(OC(F)(F)F)cc2)cn1 [Example 388, 4-methyl-2-[(R)-3-[(6-propyl-pyridin-3-ylmethyl)-carbamoyl]-4-(4-trifluoromethoxy-benzenesulfonyl)-piperazin-1-yl]-thiazole-5-carboxylic acid]	< 100	100 to 1000		
CC(=O)N1CCc2nc(N3CCN(S(=O)(=O)c4ccc(OC(F)(F)F)cc4)[C@@H](C(=O)NCc4ccc(C(C)(C)C)cc4)C3)sc2C1 [Example 589, (R)-4-(5-acetyl-4,5,6,7-tetrahydro-thiazolo[5,4-c]pyridin-2-yl)-1-(4-trifluoromethoxy-benzenesulfonyl)-piperazine-2-carboxylic acid 4-tert-butyl-benzylamide]	< 100	< 100		
O=C(NCc1ccc(OC(F)(F)F)cc1)[C@H]1CN(c2cnc3cnccc3n2)CCN1S(=O)(=O)c1ccc(Br)s1 [Example 775, (R)-1-(5-bromo-thiophene-2-sulfonyl)-4-pyrido[3,4-b]pyrazin-2-yl-piperazine-2-carboxylic acid 4-trifluoromethoxy-benzylamide]			< 100	< 100
CCCc1ccc(CNC(=O)[C@H]2CN(c3nc4c(C(=O)OCC)nnc(Cl)c4s3)CCN2S(=O)(=O)c2ccc(CC)cc2)cc1 [Example 880, 7-chloro-2-[(R)-4-(4-ethyl-benzenesulfonyl)-3-(4-propyl-benzylcarbamoyl)-piperazin-1-yl]-thiazolo[4,5-d]pyridazine-4-carboxylic acid ethyl ester]			< 100	< 100
CCC(F)(F)c1ccc(CNC(=O)[C@H]2CN(C(=O)Nc3ccnc(C(=O)O)c3)CCN2S(=O)(=O)c2ccc(OC(F)(F)F)cc2)cc1 [Example 502, 4-{[(R)-3-[4-(1,1-difluoro-propyl)-benzylcarbamoyl]-4-(4-trifluoromethoxy-benzenesulfonyl)-piperazine-1-carbonyl]-amino}-pyridine-2-carboxylic acid]	100 to 1000	100 to 1000		
Cc1nc(N2CCN(S(=O)(=O)c3ccc(OC(F)(F)F)cc3)[C@@H](C(=O)NCc3ccc(C(C)C)cc3)C2)sc1C(=O)N(C)C [Example 355, (R)-4-(5-dimethylcarbamoyl-4-methyl-thiazol-2-yl)-1-(4-trifluoromethoxy-benzenesulfonyl)-piperazine-2-carboxylic acid 4-isopropyl-benzylamide]	< 100	< 100		
O=C(NCc1ccc(OC(F)(F)F)cc1)[C@H]1CN(c2nc3nc(CC4CC4)ncc3s2)CCN1S(=O)(=O)c1ccc(C(F)(F)F)cc1 [Example 1012, (R)-4-(5-cyclopropylmethyl-thiazolo[4,5-d]pyrimidin-2-yl)-1-(4-trifluoromethyl-benzenesulfonyl)-piperazine-2-carboxylic acid 4-trifluoromethoxy-benzylamide]			< 100	< 100
CC(C)(C)c1ccc(CNC(=O)[C@H]2CN(c3ccnc(O)n3)CCN2S(=O)(=O)c2ccc(OC(F)(F)F)cc2)cc1 [Example 581, (R)-4-(2-hydroxy-pyrimidin-4-yl)-1-(4-trifluoromethoxy-benzenesulfonyl)-piperazine-2-carboxylic acid 4-tert-butyl-benzylamide]	< 100	< 100		
CN(C)c1ccc(CNC(=O)C2CN(C(=O)CCN3CCOCC3)CCN2S(=O)(=O)c2ccc(I)cc2)cc1 (stereo not shown) [Example 113, 1-(4-iodo-benzenesulfonyl)-4-(3-morpholin-4-yl-propionyl)-piperazine-2-carboxylic acid 4-dimethylamino-benzylamide]	> 1000	> 1000		
CC(=O)N1CCN(S(=O)(=O)c2ccc(-c3ccccc3)cc2)[C@@H](C(=O)NCc2ccc(C(C)C)cc2)C1 [Example 206, (R)-4-acetyl-1-(biphenyl-4-sulfonyl)-piperazine-2-carboxylic acid 4-isopropyl-benzylamide]	100 to 1000	100 to 1000		
